{"source": "ChEMBL document CHEMBL3751764", "about": "“Synthesis and in vitro antiproliferative activity of novel pyrazolo[3,4-d]pyrimidine derivatives” (Medchemcomm, 2015)", "format_in_all_cases": "functional", "key": {"[1]": {"test_system": "SK-MEL-2", "experiment": "Cytotoxicity against human SK-MEL-2 cells after 72 hrs by SRB assay", "conditions": "SK-MEL-2, 72 h"}, "[2]": {"experiment": "Cytotoxicity against human UO31 cells after 72 hrs by SRB assay", "conditions": "UO-31, 72 h"}, "[3]": {"experiment": "Cytotoxicity against human HCC2998 cells after 72 hrs by SRB assay", "conditions": "HCC 2998, 72 h"}, "[4]": {"experiment": "Cytotoxicity against human Hs 578T cells after 72 hrs by SRB assay"}, "[5]": {"test_system": "KM12", "experiment": "Cytotoxicity against human KM12 cells after 72 hrs by SRB assay", "conditions": "KM12, 72 h"}, "[6]": {"experiment": "Cytotoxicity against human UACC257 cells after 72 hrs by SRB assay", "conditions": "UACC-257, 72 h"}, "[7]": {"test_system": "SN12C", "experiment": "Cytotoxicity against human SN12C cells after 72 hrs by SRB assay"}, "[8]": {"test_system": "NCI-H23", "experiment": "Cytotoxicity against human NCI-H23 cells after 72 hrs by SRB assay", "conditions": "NCI-H23, 72 h"}, "[9]": {"experiment": "Cytotoxicity against human SF268 cells after 72 hrs by SRB assay", "conditions": "SF-268, 72 h"}, "[10]": {"experiment": "Cytotoxicity against human OVCAR5 cells after 72 hrs by SRB assay", "conditions": "OVCAR-5, 72 h"}, "[11]": {"conditions": "read-out: LC50 (the source's name)"}}}
{"smiles": "O=C(NC1CCCCC1)c1ccc(Nc2ncnc3c2cnn3-c2ccccc2)cc1", "values": [{"measurement": "GI50", "setting": "[1]", "value": 13.6, "unit": "µM"}, {"measurement": "TGI", "setting": "[1]", "value": 36.2, "unit": "µM"}, {"measurement": "CC50", "setting": "[1]; [11]", "value": 96.3, "unit": "µM"}, {"measurement": "GI50", "setting": "[2]", "value": 23.9, "unit": "µM"}, {"measurement": "TGI", "setting": "[2]", "value": "> 100", "unit": "µM"}, {"measurement": "CC50", "setting": "[2]; [11]", "value": "> 100", "unit": "µM"}, {"measurement": "GI50", "setting": "[3]", "value": "> 100", "unit": "µM"}, {"measurement": "TGI", "setting": "[3]", "value": "> 100", "unit": "µM"}, {"measurement": "CC50", "setting": "[3]; [11]", "value": "> 100", "unit": "µM"}, {"measurement": "GI50", "setting": "[4]", "value": 3.37, "unit": "µM"}, {"measurement": "TGI", "setting": "[4]", "value": 34.2, "unit": "µM"}, {"measurement": "CC50", "setting": "[4]; [11]", "value": "> 100", "unit": "µM"}, {"measurement": "GI50", "setting": "[5]", "value": 57.8, "unit": "µM"}, {"measurement": "TGI", "setting": "[5]", "value": "> 100", "unit": "µM"}, {"measurement": "CC50", "setting": "[5]; [11]", "value": "> 100", "unit": "µM"}, {"measurement": "GI50", "setting": "[6]", "value": 6.42, "unit": "µM"}, {"measurement": "TGI", "setting": "[6]", "value": "> 100", "unit": "µM"}, {"measurement": "CC50", "setting": "[6]; [11]", "value": "> 100", "unit": "µM"}, {"measurement": "GI50", "setting": "[7]", "value": 8.26, "unit": "µM"}, {"measurement": "TGI", "setting": "[7]", "value": "> 100", "unit": "µM"}, {"measurement": "CC50", "setting": "[7]; [11]", "value": "> 100", "unit": "µM"}, {"measurement": "GI50", "setting": "[8]", "value": 10.9, "unit": "µM"}, {"measurement": "TGI", "setting": "[8]", "value": 89.9, "unit": "µM"}, {"measurement": "CC50", "setting": "[8]; [11]", "value": "> 100", "unit": "µM"}, {"measurement": "GI50", "setting": "[9]", "value": 5.85, "unit": "µM"}, {"measurement": "TGI", "setting": "[9]", "value": "> 100", "unit": "µM"}, {"measurement": "CC50", "setting": "[9]; [11]", "value": "> 100", "unit": "µM"}, {"measurement": "GI50", "setting": "[10]", "value": 15.2, "unit": "µM"}, {"measurement": "TGI", "setting": "[10]", "value": 95.2, "unit": "µM"}, {"measurement": "CC50", "setting": "[10]; [11]", "value": "> 100", "unit": "µM"}]}
